These results are taken from patent publication US20070248646A1, “Use of azurocidin inhibitors in prevention and treatment of ocular vascular leakage” (priority 2006, published 2007).

Test [1] has as its system VEGF-induced blood retinal barrier breakdown. Description: VEGF-induced blood retinal barrier breakdown (Evans Blue). It counts as in vivo, Brown Norway rats. To be noted: 24 hours after intravitreal 50 ng VEGF. As to the method: (§1) This study employed Brown Norway rats, AZ (1 μg, 10 μg, 20 μg), PBS, aprotinin, VEGF164, and polyclonal anti-AZ antibody (1 μg). Briefly, Brown Norway rats received intravitreal injections of AZ (1 μg, 10 μg and 20 μg) in one eye and PBS in the contralateral eye. BRB breakdown was quantified using the Evans Blue (EB) technique at 1 hour, 3 hours, and 24 hours after intravitreal injection of AZ or PBS. To assess whether AZ induced retinal leukostasis, firm leukocyte adhesion was quantified at 3 hours and 24 hours post AZ injection (10 μg) using the ex vivo conconavalin leukostasis assay. To block AZ, rats were treated with a single intravenous injection of aprotinin (30,000KIU), prior to the intravitreal injections. To investigate whether AZ was involved in VEGF-induced BRB breakdown, rats received intravitreal injections of 50 ng recombinant mouse VEGF164 in one eye and PBS in the other eye and were treated intravenously with aprotinin (50,000KIU every eight hours) or polyclonal anti-AZ antibody (1 μg). BRB breakdown and retinal leukostasis were quantified 24 hours after VEGF injection.
Rats received intravitreous injections of 5 μl of sterile phosphate-buffered saline (PBS) containing 50 ng VEGF164 (R&D Systems, Minneapolis, Minn.) in one eye and 5 μl of sterile phosphate-buffered saline (PBS) in the contralateral eye. The retinas were analyzed for leakage 24 hours after VEGF injection.
In a second group, the rats were additionally treated intravenously with aprotinin (Trasylol®, Bayer Pharmaceuticals). 50,000KIU of aprotinin (5 ml of Trasylol®) was administered intravenously through the tail vein 1 hour before, as well as 8 hours and 16 hours after, the intravitreal injection of VEGF. The retinas were analyzed 24 hours after VEGF administration.
In a third group, rats were treated with intravitreous injections of 1 μg of goat anti-human azurocidin polyclonal antibody (5 μl of a 200 μg/ml antibody solution, Santa Cruz biotechnology) or control goat isotype IgG (R&D system) in the VEGF injected eye 6 hours after VEGF administration.
Retinal vascular permeability was quantified as previously described (Qaum et al. (2002) supra, Xu et al. (2001) INVEST. OPHTHALMOL. VIS. SCI. 42; 789-94). After the animals were deeply anesthetized, Evans blue dye (Sigma) dissolved in normal saline (30 mg/ml) was injected through the tail vein over 10 seconds at a dosage of 45 mg/kg. Blood samples were obtained from the left ventricle, just before perfusion at 2 hours, to obtain the time-average Evans blue dye plasma concentration. These blood samples were centrifuged at 12,000 rpm for 15 minutes and diluted to 1/10,000th of their initial concentration in formamide (Sigma). The background-subtracted absorbance was determined by measuring each sample at 620 nm (the absorbance maximum for Evans blue dye in formamide) and 740 nm (the absorbance minimum) with a spectrophotometer. The concentration of dye in the plasma was calculated from a standard curve of Evans blue dye in formamide. After the dye had circulated for 2 hours, the chest cavity was opened, and the rats were perfused through the left ventricle with 1% paraformaldehyde in citrate buffer (0.05 M, pH 3.5) at a physiological pressure of 120 mm Hg. The retinas were then carefully dissected under an operating microscope. After measurement of the retinal weight, Evans blue dye was extracted by incubating each retina in 0.180 ml of formamide for 18 hours at 70° C. The extract was ultracentrifuged at a speed of 14,000 rpm for 60 minutes at 25° C. Sixty microliters of the supernatant was used for spectrophotometric measurement at 620 nm and 740 nm. The background-subtracted absorbance was determined by measuring each sample at 620 nm (the absorbance maximum for Evans blue dye in formamide) and 740 nm (the absorbance minimum). The concentration of dye in the extracts was calculated from a standard curve of Evans blue dye in formamide. […]

The test system of test [2] is retinal vascular permeability. Description: Qualitative evaluation of retinal vascular permeability with 20-kDa FITC conjugated dextran. The note with it: flat-mount retinas, VEGF-injected eyes with or without aprotinin. It counts as in vivo, Brown Norway rats. As to the method: Retinal vascular permeability was documented in a histological manner by intravenous injection of 20-kDa FITC conjugated dextran (50 mg/Kg, Sigma Aldrich). Rats were sacrificed 30 minutes later with intracardiac perfusion of 4% paraformaldehyde to fix the dextran conjugate in the tissues. The retinas were carefully dissected and flat mounted in anti-fading medium (Vector Laboratories). Flat-mount retinas were examined by fluorescent microscopy. Digital color enhancement (green) was equally applied to all images for improved visualization of fluorescence.

In test [3] the test system is VEGF-induced retinal leukostasis. As to the kind of experiment: Concanavalin A ex vivo retinal leukostasis quantification, VEGF-induced. Format: in vivo, Brown Norway rats. On the procedure: as §1
Deep anesthesia was induced with xylazine and ketamine as above. The chest cavity was carefully opened and the left ventricle was entered with a 14-gauge perfusion cannula fixed to a vessel clamp; care was taken to avoid ventricular obstruction. The right atrium was opened with a 12-gauge needle to achieve outflow. With the heart providing the motive force, 250 ml/kg PBS (roughly 30 ml of PBS quickly) was perfused to clear erythrocytes and non-sticking leukocytes, followed by perfusion with FITC-coupled Concanavalin A lectin (20 μg/ml in PBS, pH 7.4, total concentration 5 mg/kg) (Vector Labs, Burlingame, Calif.). The latter stained adherent leukocytes and the vascular endothelium. Lectin staining was followed by PBS perfusion (30 ml quickly).
The retinas were flat-mounted in a water-based fluorescence-anti-fading medium (Southern Biotechnology, Birmingham, Ala.) and imaged via fluorescence microscopy (Leica upright microscope, Hamamatsu digital high sensitivity camera, openlab imaging software). The total number of adherent leukocytes per retina was counted in a masked fashion.

Test [4] deals with murine brain microvascular endothelial cells (bEND3). As to the kind of experiment: Transendothelial electrical resistance (TEER), in vitro model of the BBB. It counts as cell-based. To be noted: AZ 25 μg/ml, VEGF 100 ng/ml. As to the method: The purpose of this experiment was to investigate the direct effects of VEGF and/or AZ on the BBB. This study used an in vitro model of the BBB in which transendothelial electrical resistance (TEER) in barrier-privileged murine brain microvascular endothelial cells (bEND3) was measured. The results provide support that the direct effects of VEGF and AZ on the endothelium of the BBB, although related, may be distinct.
Murine brain microvascular endothelial cells (bEND3) were grown on 0.4 μm fibronectin-coated inserts in 24-well plates (BD Bioscience, San Jose, Calif.). After the cells reached confluency, the cells were stimulated with AZ (AZ, 25 μg/ml), VEGF (100 ng/ml) or both. Electrical resistance was measured at the indicated time-points after the treatment by using a volt-ohmmeter (EVOM, World Precision Instruments, Sarasota, Fla.) with the electrode reproducibly positioned in each well. Transendothelial electrical resistance (TEER) values for each Transwell were calculated by subtracting the electrical resistance of the blank wells (coated filters without cells) prepared and treated as the experimental samples. All experiments were carried out in quadruplicate. The results were expressed as Mean±SEM from n=4 independent experiments.

Test [5] deals with isolated leukocytes. The note with it: VEGF 5-500 ng/ml, 20 minutes.
Procedure: Additionally, in vitro it is investigated whether VEGF can cause the release of AZ from isolated leukocytes. The supernatant of VEGF-treated leukocytes is used to detect AZ using a Western Blot. Briefly, 10-20 ml of human blood is obtained by phlebotomy from healthy volunteers of both genders and all age groups. Leukocyte subtypes (i.e., neutrophils) are isolated using a percoll gradient technique. Then, 1-2×10^6 leukocytes are incubated for 20 minutes at room temperature with different concentrations (5-500 ng/ml) of human VEGF isoforms (121, 165, and 189) in a total volume of 200-300 μl of 1% FBS-containing PBS. Samples are then centrifuged at 1,500 rpm for 10 minutes, and 150-200 μl of the supernatant is collected for AZ-detection using the Western Blot technique with a commercially available antibody against human AZ (R&D systems).
The test system of test [6] is retinal vascular permeability (blood retina barrier). As to the kind of experiment: Evans Blue BRB breakdown after intravitreal azurocidin. It counts as in vivo, Brown Norway rats. To be noted: intravitreal 20 μg. As to the method:
as §1
Rats received intravitreous injections of 5 μl of sterile phosphate-buffered saline (PBS) containing 20 μg human neutrophil azurocidin (Athens Research and Biotechology, Atlanta, Ga.) in one eye and 5 μl of sterile phosphate-buffered saline (PBS) in the contralateral eye. The retinas were analyzed 45 minutes, 3 hours, and 24 hours after azurocidin injection.
Retinal vascular permeability was quantified as previously described (Qaum et al. (2002) supra, Xu et al. (2001) INVEST. OPHTHALMOL. VIS. SCI. 42; 789-94). After the animals were deeply anesthetized, Evans blue dye (Sigma) dissolved in normal saline (30 mg/ml) was injected through the tail vein over 10 seconds at a dosage of 45 mg/kg. Blood samples were obtained from the left ventricle, just before perfusion at 2 hours, to obtain the time-average Evans blue dye plasma concentration. These blood samples were centrifuged at 12,000 rpm for 15 minutes and diluted to 1/10,000th of their initial concentration in formamide (Sigma). The background-subtracted absorbance was determined by measuring each sample at 620 nm (the absorbance maximum for Evans blue dye in formamide) and 740 nm (the absorbance minimum) with a spectrophotometer. The concentration of dye in the plasma was calculated from a standard curve of Evans blue dye in formamide. After the dye had circulated for 2 hours, the chest cavity was opened, and the rats were perfused through the left ventricle with 1% paraformaldehyde in citrate buffer (0.05 M, pH 3.5) at a physiological pressure of 120 mm Hg. The retinas were then carefully dissected under an operating microscope. After measurement of the retinal weight, Evans blue dye was extracted by incubating each retina in 0.180 ml of formamide for 18 hours at 70° C. The extract was ultracentrifuged at a speed of 14,000 rpm for 60 minutes at 25° C. Sixty microliters of the supernatant was used for spectrophotometric measurement at 620 nm and 740 nm. The background-subtracted absorbance was determined by measuring each sample at 620 nm (the absorbance maximum for Evans blue dye in formamide) and 740 nm (the absorbance minimum). The concentration of dye in the extracts was calculated from a standard curve of Evans blue dye in formamide. Blood-retinal barrier breakdown was calculated as previously described (Qaum et al (2002) supra, Xu et al. (2001) supra). Briefly, as mentioned, the optical density of the formamide containing tissue-extracted Evans Blue dye and that of the animals' plasma were measured at two different wavelengths (620 and 740 nm). The values were then inserted into the following equation. [formula] Results were expressed as a percentage of the value in control eyes. As used through each of Examples 1 -12, the units for results from the EB technique are μl plasma/g retina/h. Ex Vivo Quantification of Retinal Leukostasis

For the molecule VEGF, the “BRB breakdown as percentage of the value in control eyes” value in test [1] is 320%±74. Further, in test [1] (PBS eye 9.6±1.4 (VEGF alone), 5.4±1.4 (with aprotinin)), the “Evans Blue retinal leakage in VEGF-injected eye” value was 29.7±7.5 μl plasma/g retina/h. Also, the “fold increase in retinal vascular leakage compared to the PBS injected eye” value in test [1] (aprotinin i.v. 50,000KIU every eight hours, antibody 1 μg intravitreal 6 hours after VEGF) is recorded as 3.2±0.74 fold. Moreover, the “retinal distribution of intravenously injected 20 kDa FITC-conjugated dextran” value in test [2] was “fluorescence diffusely distributed throughout the retinal tissues at both intraluminal and extravascular locations”. In addition, the “leukocyte adhesion as a percentage of leukocyte adhesion in the contralateral PBS-injected eye” value in test [3] (24 hours after 50 ng VEGF, aprotinin 50,000 KIU i.v. 1 hour before, 8 and 16 hours after) was 308%. In addition, in test [3] (intravitreal 50 ng VEGF, 24 hours post injection), the “fold increase in total number of leukocytes adherent to the retina vessels compared to PBS-injected eyes” value came to 3 fold. Further, in test [4], the “TEER after 6 hours until 24 hours after treatment” value is given as “showed no sign of recovery in the TEER values”; the “TEER up to 6 hours after treatment” value is reported as “remained at the reduced levels until 6 hours after treatment”; the “TEER, first 30 minutes after incubation” value is “rapid and significant drop of resistance”. Besides, the “anticipated release of AZ from leukocytes” value in test [5] is reported as “induces the release of AZ from leukocytes”.

B1: azurocidin (protein, UniProt P20160 27-248, looked up)
Azurocidin: IVGGRKARPRQFPFLASIQNQGRHFCGGALIHARFVMTAASCFQSQNPGVSTVVLGAYDLRRRERQSRQTFSISSMSENGYDPQQNLNDLMLLQLDREANLTSSVTILPLPLQNATVEAGTRCQVAGWGSQRSGGRLSRFPRFVNVTVTPEDQCRPNNVCTGVLTRRGGICNGDGGTPLVCEGLAHGVASFSLGPCGRGPDFFTRVALFRDWIDGVLNNPGP
notes: human neutrophil azurocidin
As to B1, the “time course of increase in retinal vascular permeability” value in test [6] is given as “with a peak one to three hours post administration”. Also, the “Evans Blue retinal leakage” value in test [6] (3 to 5 hours post injection, PBS eye 8.3±1.4) is 21±2.3 μl plasma/g retina/h; in test [6] (24 hours post-injection, PBS eye 8.7±1.8) it was 16.5±2.8 μl plasma/g retina/h; in test [6] (one to three hours after injection, PBS eye 5.8±1.4) it was 45±17 μl plasma/g retina/h. Further, the “fold increase in Evans Blue retinal leakage compared to control eyes” value in test [6] (3 to 5 hours post injection, n=11) is 2.7 fold; in test [6] (24 hours post-injection, n=6) it was 1.7 fold; in test [6] (approximately one to three hours after injection, n=8), 7.7 fold. For the same molecule, the “TEER after 6 hours until 24 hours after treatment” value in test [4] is “started to recover to normal levels and reached higher values than untreated control”. Moreover, the “TEER up to 6 hours after treatment” value in test [4] is listed as “remained at the reduced levels until 6 hours after treatment”. Moreover, the “TEER, first 30 minutes after incubation” value in test [4] is “rapid and significant drop of resistance”.
